Assay results reported in US20100063155A1, “N-(3-PHENYLPROPYL)BENZAMIDE DERIVATIVES” (priority 2007, published 2010).

Tested on: Alternaria brassicae
Experiment: In vivo test on Alternaria brassicae (leaf spot of crucifers)
Conditions: 500 ppm, preventive spray on radish plants (Pernot variety), contaminated after 24 hours, grading 6 to 7 days after contamination vs control plants
Protocol: The active ingredients tested are prepared by potter homogenisation in a mixture of acetone/tween/water. This suspension is then diluted with water to obtain the desired active material concentration.
Radish plants (Pernot variety), sown on a 50/50 peat soil-pozzolana substrate in starter cups and grown at 18-20° C., are treated at the cotyledon stage by spraying with the active ingredient prepared as described above.
Plants, used as controls, are treated with the mixture of acetone/tween/water not containing the active material.
After 24 hours, the plants are contaminated by spraying them with an aqueous suspension of Alternaria brassicae spores (40,000 spores per cm^3). The spores are collected from a 12 to 13 days-old culture.
The contaminated radish plants are incubated for 6-7 days at about 18° C., under a humid atmosphere.
Grading is carried out 6 to 7 days after the contamination, in comparison with the control plants.

Which protection does the source give for `O=C(NCCCc1ccc(Cl)cc1Cl)c1ccccc1C(F)(F)F` [Compound 1, N-[3-(2,4-dichlorophenyl)propyl]-2-(trifluoromethyl)benzamide] here?
Its protection is “at least 70%”.
